Patent US20260115190A1, “DISPERSIONS OF ETRUMADENANT” (Arcus Biosciences, Inc., priority 2022, published 2026)
Where two headings read alike, the source gives them in different places.

What was measured:
[1] = Non-sink dissolution (0.1N HCl to FaSSIF gastric transfer); type: physicochemical
Method: In vitro drug dissolution performance for each dispersion was evaluated under non-sink conditions in a two-stage process that simulates pH and bile salt concentrations for both gastric and intestinal exposure. In vitro dissolution testing under non-sink conditions allows for a direct evaluation of each dispersion's ability to generate and maintain supersaturation above crystalline etrumadenant's solubility; was used as a predictive surrogate for ensuring product quality and in vivo performance; and is an effective test to discriminate between formulations at a given stability condition.
To begin dissolution (t=0), a sample of SDI powder was briefly suspended in 4 mL of FaSSIF (2 mg/mL SIF in 100 mM PBS) and then transferred into 50 mL SGF (0.1 N HCl (aq)) pre-heated to 37° C. in a USP Type 2 mini-vessel (100 mL total vessel volume) with stirring (paddles) at 100 rpm. At 30 minutes, a gastric transfer step was performed wherein the volume in each dissolution vessel was approximately doubled using 2×FaSSIF (4.48 mg/mL SIF powder (BioRelevant)), resulting in a final pH of 6.8 in a total volume of 100 mL. Samples taken before and after this transfer at indicated times were evaluated for drug concentration by HPLC. The drug concentrations measured in this test are a composite of SDI free drug, drug in micelles, and drug suspended in solution. A summary of the dissolution and HPLC parameters are shown in Table 6 and Table 7, respectively.

[2] = IV reference AUClast in beagle dogs; conditions: dog, in vivo, IV at 5 mg/kg
[3] = Drug-drug interaction study with itraconazole; type: in vivo, humans; conditions: for CL/F / Kel / Vd/F / half-life: arithmetic mean ± SD; for AUC % ex / AUC from 0 to 24 h (AUC0-24) / AUC(0-t) / AUC(0-inf) / Cmax: geometric mean; for AUC from 0 to 24 h (AUC0-24) / AUC(0-t) / Vd/F / half-life / AUC(0-inf) / Cmax / Tmax: both sexes, human, plasma, oral; for Vd/F: read-out: Vz/F; for half-life: read-out: t½ (converted); for Tmax: median
Method: An open-label, fixed-sequence, 2-period drug-drug interaction (DDI) study was designed to evaluate the effect of multiple doses of a strong inhibitor of CYP3A4 and P-gp on the single-dose PK of etrumadenant in humans. Etrumadenant was supplied as 25 mg capsules. Itraconazole was used as the representative strong inhibitor of CYP3A4 and P-gp. It was supplied as 10 mg/mL oral solution, Sporanox® by Janssen Pharmaceuticals (or generic equivalent). Twenty (20) healthy, adult male and female (of non-childbearing potential) participants were enrolled. Screening of participants occurred within 28 days prior to the first dosing.
On Day 1 of Period 1, a single 150 mg dose of etrumadenant was orally administered under fasting conditions (i.e., at least 10 hours of fasting prior to dosing and at least 4 hours postdose). PK sampling for etrumadenant and its metabolites was taken predose and up to 120 hours postdose. There was a washout of 5 days between the etrumadenant dose in Period 1 and the first itraconazole dose in Period 2.
In Period 2, 200 mg itraconazole was orally administered twice a day (BID) on Day 1 and once a day (QD) for 9 consecutive days (on Days 2 through 10) with a single 150 mg dose of etrumadenant orally administered 1 hour after itraconazole dosing on Day 6. Itraconazole was administered under fasting conditions. On Day 6, participants fasted for at least 10 hours prior to and at least 4 hours post etrumadenant dosing. PK sampling for etrumadenant and its metabolites was taken predose and up to 120 hours after etrumadenant dosing. PK sampling for itraconazole and 1-hydroxy-itraconazole was collected on Days 5, 6, 7, 9, and 11.
Itraconazole was administered twice on the first day of Period 2 as a loading dose to accelerate CYP3A inhibition and the inhibition was then maintained by administering itraconazole 200 mg QD for 9 consecutive days. A 200 mg BID dose level is expected to provide similar inhibition to a 400 mg QD dose. Although itraconazole reaches steady state within approximately 15 days, it has been established that QD administration of 200 mg itraconazole for 3 to 5 days allows maximum CYP3A inhibition sufficient to detect a DDI. […] As such, administration of itraconazole for at least 4 days is considered sufficient in DDI studies as a CYP3A4 and P-gp inhibitor. To maintain the level of inhibition, itraconazole was administered throughout PK sampling of etrumadenant (i.e., through Day 10 of Period 2). In addition, the itraconazole oral solution was administered under fasting conditions to maximize bioavailability.
Participants were housed on Day −1 of Period 1, at the time indicated by the clinical research unit (CRU), until after the 120-hour blood draw and completion of study procedures in Period 2. Safety was monitored throughout the study by repeated clinical and laboratory evaluations. In this study, there were no discontinued participants. All participants who received at least one dose of study drug (including participants who terminated the study early) were asked to return to the CRU approximately 14 days after the last dose for follow-up procedures, and to determine if any adverse event (AE) had occurred since the last study visit. All adverse events reported in the study were mild and resolved without treatment.

[4] = molecular target: T1, A2BR (Homo sapiens, UniProt P29275); conditions: antagonist; has been reported; cited from earlier work
T1 sequence (P29275 1-332): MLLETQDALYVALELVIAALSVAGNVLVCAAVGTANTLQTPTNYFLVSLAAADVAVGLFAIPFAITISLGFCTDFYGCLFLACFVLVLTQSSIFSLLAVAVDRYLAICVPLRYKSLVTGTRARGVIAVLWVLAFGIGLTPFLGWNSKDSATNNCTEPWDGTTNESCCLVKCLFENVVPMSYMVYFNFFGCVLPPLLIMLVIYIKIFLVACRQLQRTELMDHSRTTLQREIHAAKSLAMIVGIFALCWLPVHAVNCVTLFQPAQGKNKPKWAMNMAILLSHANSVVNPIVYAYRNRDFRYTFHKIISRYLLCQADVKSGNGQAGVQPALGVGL

[5] = Etrumadenant 150 mg + Itraconazole
[6] = multiple doses of itraconazole compared to etrumadenant given alone

With Cc1c(C#N)cccc1-c1cc(-c2cn(Cc3cccc(C(C)(C)O)n3)nn2)nc(N)n1 [Etrumadenant, 3-[2-amino-6-(1-{[6-(2-hydroxypropan-2-yl)pyridine-2-yl]methyl}-1H-1,2,3-triazol-4-yl)pyrimidin-4-yl]-2-methylbenzonitrile] the “AUC35-210 FaSSIF” value ([1]; Example 4, after transfer to FaSSIF from 35 to 210 minutes) was 8000 min*μgA/mL, the C210 ([1]; Example 4, drug concentration at 210 minutes (180 minutes after transfer to FaSSIF)) was 37.9 μgA/mL and the “Cmax FaSSIF” value ([1]; Example 4, maximum drug concentration after transfer to FaSSIF) was 155.0 μgA/mL. The “AUC35-210 FaSSIF” value ([1]; Example 5, t = 0) was 3800 min*μgA/mL, the C210 ([1]; Example 5, t = 0) was 15.5 μgA/mL and the “Total Drug CmaxFaSSIF” value ([1]; Example 5, t = 0) was 129.9 μgA/mL. The C210 ([1]; Example 5, t = 0, listed as AB928 starting drug substance) was 15.6 μgA/mL, the AUC(0-t) [2] was 25100 ng·h/mL and the CL/F [3, 5] was 2.52 ± 0.842 L/h. It also gave a Kel [3, 5] of 0.0255 ± 0.00605 h⁻¹, an AUC % ex [3, 5] of 4.39% and a CL/F ([3]; Etrumadenant Alone, 150 mg) of 4.00 ± 1.12 L/h. The Kel ([3]; Etrumadenant Alone, 150 mg) was 0.0249 ± 0.00663 h⁻¹, the AUC % ex ([3]; Etrumadenant Alone, 150 mg) was 3.90% and the AUC from 0 to 24 h (AUC0-24) ([3]; 150 mg, Etrumadenant Alone, 150 mg (6 × 25 mg capsules), fasting) was 21600 ng·h/mL. For the same molecule, the AUC(0-t) ([3]; 150 mg, Etrumadenant Alone) was 36500 ng·h/mL, the AUC from 0 to 24 h (AUC0-24) ([3]; Etrumadenant 150 mg + Itraconazole 200 mg multiple doses) was 30700 ng·h/mL and the Vd/F [3, 5] was 100 ± 28.3 L. It also gave a half-life [3, 5] of 28.7 ± 7.01 h, an AUC(0-inf) [3, 5] of 62600 ng·h/mL and an AUC(0-t) [3, 5] of 59400 ng·h/mL. For the same molecule, the Cmax [3, 5] was 3530 ng/mL, the Tmax [3, 5] was 1.52 h and the Vd/F ([3]; Etrumadenant Alone, 150 mg) was 172 ± 64.8 L. For the same molecule, the half-life ([3]; Etrumadenant Alone, 150 mg) was 29.9 ± 8.88 h, the AUC(0-inf) ([3]; Etrumadenant Alone, 150 mg) was 38600 ng·h/mL and the Cmax ([3]; Etrumadenant Alone, 150 mg) was 3000 ng/mL. The Tmax ([3]; Etrumadenant Alone, 150 mg) was 1.38 h, the “increase in etrumadenant AUCinf” value [3, 6] was ~62% and the “increase in etrumadenant AUClast” value [3, 6] was “approximately 63%”. For the same molecule, the “increase in etrumadenant Cmax” value [3, 6] was ~18% and the “potency on A2BR” value [4] was “less than 10 nM”.
